Experimental data: PMC10973839, “CHF6297: a novel potent and selective p38 MAPK inhibitor with robust anti-inflammatory activity and suitable for inhaled pulmonary administration as dry powder” (Frontiers in Pharmacology, 2024)

Experiments:
human p38δ = molecular target: T1, human p38δ (Homo sapiens, UniProt O15264); assay: AlphaScreen kinase activity assay, human p38δ; assay type: biochemical
T1 construct: GST; purchased Invitrogen
T1 sequence (O15264 1-365): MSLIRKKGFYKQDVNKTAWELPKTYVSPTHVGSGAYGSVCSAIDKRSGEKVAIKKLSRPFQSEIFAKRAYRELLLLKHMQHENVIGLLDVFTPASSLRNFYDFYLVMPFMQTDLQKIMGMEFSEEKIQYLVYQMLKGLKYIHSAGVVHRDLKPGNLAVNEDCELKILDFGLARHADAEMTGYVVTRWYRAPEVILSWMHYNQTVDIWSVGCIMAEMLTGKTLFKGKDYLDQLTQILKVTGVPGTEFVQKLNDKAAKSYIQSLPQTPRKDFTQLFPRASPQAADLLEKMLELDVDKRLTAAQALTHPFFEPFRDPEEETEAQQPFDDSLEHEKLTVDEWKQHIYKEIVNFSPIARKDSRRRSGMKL
Experimental: (§1) The inhibitory activity of CHF6297 was determined using an AlphaScreen® (PerkinElmer)-based kinase activity assay as previously described ([Armani et al., 2022]). Kinase reactions consisted of 25 mM 4-(2-hydroxyethyl)-1-piperazine ethanesulfonic acid (HEPES), pH 7.5; 10 mM MgCl2; 100 μM Na3VO4; 2 mM DTT; 0.05 mg/mL Tween^TM 20; 100 pM solution of p38α, p38β, p38δ, or p38γ (Invitrogen); 1% DMSO; and 0.3 μg/mL ATF-2 fusion protein (New England Biolabs). Compounds were incubated under these conditions for 2 h, at 25°C, prior to the initiation of kinase activity by the addition of 250 μM ATP. […] Detection was performed by measuring luminescence following the addition of AlphaScreen donor beads (PerkinElmer, 6765300) and Protein A AlphaScreen acceptor beads (PerkinElmer, 6760137), both at a final concentration of 20 μg/mL. IC50 values were determined from concentration–response curves. […]
(§2) CHF6297 was tested in biochemical enzymatic assays to determine its potency as an inhibitor of human p38α (MAPK14) and of the other human p38 isoforms, p38β (MAPK11), p38γ ([…]), and p38δ ([…]) ([Armani et al., 2022]). Activity in the primary screening assay was determined using AlphaScreen technology, in which a peptide (ATF2) is phosphorylated by the appropriate GST-tagged p38 protein isoform in the presence of CHF6297 at concentrations from semi-logarithmic dilutions. […]

[1] = system: IAV-induced airway neutrophilia in HDM-challenged mice; assay: Influenza virus A (H3N2)-induced exacerbation in HDM-sensitized mice; assay type: in vivo, Balb/c mice
[2] = system: TS-induced neutrophil influx in BALF; assay: BALF neutrophilia induced by tobacco smoke exposure in mice; assay type: in vivo, C57BL6J female mice; settings: for neutrophils in BALF: 4 days TS exposure
Experimental: C57BL6J female mice aged 9–10 weeks (Harlan Laboratories S.r.l) in groups of 8 were exposed, via whole-body inhalation, twice daily 1 h apart, for 4 consecutive days, to the tobacco smoke (TS) (generated using “Marlboro Gold: 9 mg of tar and 0.7 mg nicotine”) of two cigarettes/exposure on days 1 and 2, three cigarettes/exposure on day 3, and four cigarettes/exposure on the last exposure day in clear polycarbonate chambers (27 cm × 16 cm × 12 cm). The smoke was introduced into the exposure chambers (21100-790 Ugo Basile, Biological Research Instruments, Comerio, Varese, Italy), with the airflow generated by using a mechanical ventilator (7025 Rodent Ventilator, Ugo Basile). Each exposure chamber was connected to a different ventilator set at a rate of 100 mL/min (frequency: 50 strokes/min; volume: 2 mL/stroke). At regular intervals (after burning two cigarettes), the exposure chambers were opened and aired. Sham and control mice were exposed to air only in the same manner for the same duration of time.
CHF6297 (0.03 and 0.3 mg/kg) and budesonide (0.3 mg/kg), our reference compound and vehicle (0.2% Tween 80 in saline), respectively, were administered intranasally in a volume of 30 µL, 1 h before and 5 h after TS exposure under light isoflurane anesthesia.
A BAL was performed using a volume of 0.6 mL of phosphate-buffered saline that was gently instilled and withdrawn three times using a 12-mL syringe. BALF cells were separated by centrifugation (10 min at 3,070 g), and the supernatant was removed. The resulting cell pellet was resuspended in a known volume of PBS, and the total cell numbers were calculated by counting a stained (Turk’s stain) aliquot under a microscope using a hemacytometer. The cell pellet was resuspended to approximately 10^5 cells per ml, and cytospin slides were prepared by centrifugation (8 min at 72.26 g; Shandon Cytospin; Thermo Shandon Ltd., Runcorn, Cheshire, United Kingdom). The slides were air-dried and stained using Wright–Giemsa stain, following the manufacturer’s instructions. A differential cell count was performed using light microscopy. Approximately 400 cells were counted from each slide. The cells were identified using standard morphometric techniques.

human p38β = molecular target: T2, human p38β (Homo sapiens, UniProt Q15759); assay: KINOMEscan competition binding assay (DiscoverX), p38β; settings: read-out: Kd (mean ± s.d.)
T2 construct: purchased DiscoverX
From the text: The KINOMEscan® platform (DiscoverX) was used, which uses a novel and proprietary active site-directed competition binding assay to quantitatively measure the interactions between human p38 isoforms and the target compound.

human p38α (MAPK14) = molecular target: T3, human p38α (MAPK14) (Homo sapiens, UniProt Q16539); assay: AlphaScreen kinase activity assay, human p38α; assay type: biochemical
T3 construct: GST; purchased Invitrogen
Experimental: as §1, §2

[3] = n = 3, read-out: IC50 (mean ± s.d.)

T3 sequence (Q16539 whole entry): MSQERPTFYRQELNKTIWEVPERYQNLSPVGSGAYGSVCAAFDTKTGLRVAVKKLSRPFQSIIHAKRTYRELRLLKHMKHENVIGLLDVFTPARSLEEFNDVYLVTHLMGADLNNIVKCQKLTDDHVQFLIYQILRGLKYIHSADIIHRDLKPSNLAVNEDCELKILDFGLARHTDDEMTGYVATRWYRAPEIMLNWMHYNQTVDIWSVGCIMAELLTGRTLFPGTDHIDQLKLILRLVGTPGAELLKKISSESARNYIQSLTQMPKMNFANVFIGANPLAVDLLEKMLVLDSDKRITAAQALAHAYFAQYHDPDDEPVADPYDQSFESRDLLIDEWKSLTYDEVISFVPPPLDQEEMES
T2 sequence (Q15759 whole entry): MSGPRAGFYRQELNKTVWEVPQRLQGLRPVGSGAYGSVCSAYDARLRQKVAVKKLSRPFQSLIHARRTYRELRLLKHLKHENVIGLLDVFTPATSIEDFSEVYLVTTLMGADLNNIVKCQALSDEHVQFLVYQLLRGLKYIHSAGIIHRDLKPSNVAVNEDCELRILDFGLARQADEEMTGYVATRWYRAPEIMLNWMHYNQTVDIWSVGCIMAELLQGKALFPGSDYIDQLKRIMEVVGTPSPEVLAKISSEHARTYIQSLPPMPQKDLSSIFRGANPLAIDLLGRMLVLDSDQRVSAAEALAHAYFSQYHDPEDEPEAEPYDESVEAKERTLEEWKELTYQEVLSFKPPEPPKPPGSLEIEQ

C[C@H]1CCCCN1c1nnc2ccc(O[C@@H]3CC[C@H](NC(=O)Nc4cc(C(C)(C)C)nn4-c4cnn(CCN(C)C)c4)c4ccccc43)cn12 [CHF6297]
IC50 fold-difference vs. human p38α (human p38δ): >7,000 | IC50 (human p38δ; [3]): > 1000 nM | neutrophils in BAL fluid ([1]; 30 μg/kg i.n. twice daily for 3 days): 2.78 ± 0.28 × 10^5 cells/mL | neutrophils in BAL fluid ([1]; 100 μg/kg twice daily for 3 days): 1.29 ± 0.119 × 10^5 cells/mL | % of inhibition of neutrophil recruitment ([2]; 0.03 mg/kg i.n., 1 h before and 5 h after TS): 29.7 ± 15.3% | neutrophils in BALF ([2]; 0.03 mg/kg i.n.): 0.4 ± 0.1 × 10^5 cells/mL | % inhibition of neutrophilia ([2]; 0.3 mg/kg i.n., 1 h before and 5 h after TS): 62.0 ± 8.4% | neutrophils in BALF ([2]; 0.3 mg/kg i.n.): 0.2 ± 0.1 × 10^5 cells/mL | Kd (human p38β): 1.11 ± 0.6 nM | IC50 fold-difference vs. human p38α (human p38α (MAPK14)): 1 | IC50 (human p38α (MAPK14); [3]): 0.14 ± 0.06 nM
